The source made the active and inactive calls. How the calls were made is not given here.
Assay: blockers of mitochondrial fusion, WT vs mutant – cell-based, chemical genetic, wild-type and mutant, confirmation (AID 1361)
Details: Cell-based mitochondrial fusion phenotype, imaging
[1] = mutant cells, measured here: mutant cell line IC50

| Compound | IC50 (WT cells) | IC50 [1] |
| --- | --- | --- |
| Cc1ccnc(NS(=O)(=O)c2ccc(N=CC3=C(O)CC(C)(C)CC3=O)cc2)n1 | > 25 µM (inactive) | > 25 µM |
| CCCCNC(=S)N(C)/N=C/c1ccc2c(c1)OCO2 | 25 µM (inactive) | > 25 µM |
| CCOc1c(OC(C)=O)ccc(/C=C/c2ccc3cccc(OC(C)=O)c3n2)c1[N+](=O)[O-] | > 25 µM (inactive) | > 25 µM |
| Clc1ccc(Cn2c(/C=C/c3ccco3)nc3ccccc32)cc1 | 12.6 µM | > 25 µM |
| CC(C)CC(=O)NC(=S)N(Cc1ccccc1)Cc1ccccc1 | 19.2 µM | > 25 µM |
| COc1cccc(C2CN(c3ccc(F)cc3F)N=C2c2cccs2)c1OC (stereo unspecified) | 10 µM | > 25 µM |
| COc1ccccc1NC(=O)COC(=O)c1ccc([N+](=O)[O-])s1 | 6.09 µM | 19.4 µM |
| O=C(NCc1ccco1)c1cc(-c2ccccc2)on1 | > 25 µM (inactive) | > 25 µM |
| CCc1ccccc1N(C1=NCCCS1)S(=O)(=O)c1ccc(C(C)(C)C)cc1 | 7.58 µM | > 25 µM |
| O=C1NC(=O)C(CCc2ccncc2)(Cc2cccc(Cl)c2Cl)C(=O)N1c1ccc(Br)cc1 (stereo unspecified) | 10.1 µM | > 25 µM |
| CCCCCCCOC(=O)c1nc(Cl)c(Cl)c(N)c1Cl | 18.9 µM | > 25 µM |
| Cc1cc(N/N=C/c2ccc(O)c(C)c2O)nc(-c2ccccc2O)n1 | > 25 µM (inactive) | > 25 µM |
| CCNc1nc(SCCOc2ccc(Cl)cc2Cl)nc(N(C)C)n1 | 8.3 µM | 23.8 µM |
| FC(F)(F)c1cnc(Sc2nc3nccc(-c4ccc(Cl)cc4)n3n2)c(Cl)c1 | > 25 µM (inactive) | > 25 µM |
| Cc1nn(C(C)(C)C)c(OC(=O)c2cccs2)c1Sc1ccccc1 | 22.1 µM | > 25 µM |
| Cc1cc(NCCCn2ccnc2)n2ncc(-c3ccc(Cl)cc3)c2n1 | 11.1 µM | 17.9 µM |
| O=C(OC(c1ccc(NS(=O)(=O)c2ccccc2)cc1)(C(F)(F)F)C(F)(F)F)c1ccccc1 | 18.2 µM | > 25 µM |
| CCc1ccccc1NC(=S)N=Nc1c(O)n(C)c2ccc(S(=O)(=O)N3CCOCC3)cc12 | 1.37 µM | 9.5 µM |
| Cc1nnc(NC(=O)c2sc3nc(-c4cccs4)cc(C(F)(F)F)c3c2N)s1 | > 25 µM (inactive) | > 25 µM |
| CCCN(CCC)C(=O)CC(c1ccccc1)c1cc(Br)ccc1O (stereo unspecified) | 13.7 µM | > 25 µM |
| O=C1c2ccccc2C(=O)N1CCN1CCCCC1 | > 25 µM (inactive) | > 25 µM |

| Compound | IC50 (WT cells) | IC50 [1] |
| --- | --- | --- |
| CCc1ccccc1NC(=O)/C(=C/c1ccccc1)c1ccccc1 | 17.4 µM | > 25 µM |
| N#CC1=C(N)NC(SCc2ccc(Br)cc2)=C(C#N)C12CCCCC2 | > 25 µM (inactive) | > 25 µM |
| CC(C)c1ccc(OCC(O)Cn2cnc3ccccc32)cc1 (stereo unspecified) | > 25 µM (inactive) | > 25 µM |
| c1ccc(CNc2nc(-c3cccs3)nc3ccccc23)cc1 | > 25 µM (inactive) | > 25 µM |
| Clc1ccc(CNc2nc(CN3CCOCC3)nc3scc(-c4ccccc4)c23)cc1 | 13.2 µM | 17.9 µM |
| CCn1c2ccccc2c2cc(/C=N/NC(=O)c3cccc(C)c3)ccc21 | > 25 µM (inactive) | > 25 µM |
| O=C(Nc1ccccc1)Nc1cc(OCC(F)(F)F)cc(OCC(F)(F)F)c1 | 16.3 µM | > 25 µM |
| CCOC(=O)/C(=C\c1ccc(OC(F)F)cc1)C1=Nn2c(nnc2-c2ccc(Cl)cc2)SC1 | 10.8 µM | > 25 µM |
| CCCCCC(=O)Nc1cc(N(C)C)nc2ccccc12 | > 25 µM (inactive) | > 25 µM |
| CC(C)(C)n1nnnc1C(c1ccc(F)cc1)N(Cc1ccc(F)cc1)Cc1ccco1 (stereo unspecified) | 14.6 µM | > 25 µM |
| CCOC(=O)c1c(NC(=O)C2CCN(S(=O)(=O)c3cccs3)CC2)sc(C)c1C | > 25 µM (inactive) | > 25 µM |
| Cc1ccc(NC(=O)C2(c3ccccc3)CC2(Cl)Cl)cc1C (stereo unspecified) | > 25 µM (inactive) | > 25 µM |
| Cc1ccc(O)c(-c2cc(-c3ccccc3[N+](=O)[O-])[nH]n2)c1 | > 25 µM (inactive) | > 25 µM |
| O=C(Nc1cc(S(=O)(=O)N2CCCCC2)ccc1Cl)c1ccccc1NS(=O)(=O)c1ccc(F)cc1 | 23.4 µM | > 25 µM |
| Cc1ccc(C(=O)Nc2cc(Cl)ccc2N2CCCCC2)s1 | 7.64 µM | > 25 µM |
| CCOC(=O)c1[nH]c2ccc(OC)cc2c1NC(=O)C(C)N1CCC2(CC1)OCCO2 (stereo unspecified) | > 25 µM (inactive) | > 25 µM |
| COc1ccc(C(C)(C)C)cc1NC(=O)Nc1ccc2c(c1)OCO2 | 9.81 µM | 23.3 µM |
| CC(C)Nc1nc(Oc2cccc(Cl)c2Cl)cc(C(F)(F)F)n1 | 23.6 µM | > 25 µM |
| CNC(=S)N/N=C/c1cccc(OCc2ccccc2F)c1 | > 25 µM (inactive) | > 25 µM |
| O=C(N=C1SCC(=O)N1c1ccccc1Cl)c1ccccc1 | > 25 µM (inactive) | > 25 µM |
| O=C(Nc1cccc(Cl)c1N1CCCC1)c1ccc(Br)o1 | 18.1 µM | > 25 µM |

| Compound | IC50 (WT cells) | IC50 [1] |
| --- | --- | --- |
| Nc1ccc2nn(-c3ccccc3)nc2c1 | > 25 µM (inactive) | > 25 µM |
| Cc1nn(-c2ccccc2)c(C)c1C(=O)OCC(=O)N1CCN(S(=O)(=O)c2ccccc2)CC1 | > 25 µM (inactive) | > 25 µM |
| CC(C)(C)c1ccc(CNc2ccc([N+](=O)[O-])cn2)cc1 | > 25 µM (inactive) | > 25 µM |
| NC(=O)c1ccc(NC(=O)CCCN2C(=O)c3ccccc3C2=O)cc1 | > 25 µM (inactive) | > 25 µM |
| CCN(Cc1ccccc1)c1ccc(/C=N/NC(=S)NC(C)C)cc1 | 5.04 µM | > 25 µM |
| O=C(CCC1N=C2c3ccccc3N=C(SCc3cccc(Cl)c3)N2C1=O)NCc1ccco1 (stereo unspecified) | > 25 µM (inactive) | > 25 µM |
| CCN(CC)C(=O)C1CC(=O)N(c2ccc(F)c(Cl)c2)C1 (stereo unspecified) | > 25 µM (inactive) | > 25 µM |
| COc1ccc(NC(=O)N2c3ccccc3CC2C)cc1OC (stereo unspecified) | > 25 µM (inactive) | > 25 µM |
| Fc1ccc(Cn2nnnc2C(c2cccs2)N2CCCCCC2)cc1 (stereo unspecified) | > 25 µM (inactive) | > 25 µM |
| COc1ccc(NC(=S)N(CCc2c(C)[nH]c3ccc(C)cc23)Cc2ccco2)cc1 | 8.8 µM | > 25 µM |
| CC(NC(c1ccccc1)c1ccccc1)C(=O)N1CCCc2ccccc21 (stereo unspecified) | 19.9 µM (inactive) | > 12.5 µM |
| CCC1CCCCN1c1cc(C)nc2cc(-c3cccc(C)c3)nn12 (stereo unspecified) | 13.1 µM | > 25 µM |
| COc1ccccc1CNc1nc2nc(C)c(C)c(=O)n2[nH]1 | > 25 µM (inactive) | > 25 µM |
| CCCOC(=O)c1ccc(Oc2cn[nH]c2-c2ccc(OC)cc2O)cc1 | 11.3 µM | 21.9 µM |
| COc1ccc(S(=O)(=O)N2c3ccccc3OCC2C(C)(C)C)cc1 (stereo unspecified) | 18.5 µM | > 25 µM |
| O=C(NCC1(c2ccccc2)CCCC1)C1(c2ccccc2)CCCC1 | 16.8 µM | > 25 µM |
| O=C(Nc1ccccn1)c1ccco1 | > 25 µM (inactive) | > 25 µM |
| COCCN1C(=O)/C(=C/c2ccc(OCc3ccc(C(=O)O)cc3)c(OC)c2)SC1=Nc1ccccc1 | > 25 µM (inactive) | > 25 µM |
| COc1ccccc1-c1nnc(SCC(=O)NCc2c(C)c(Cl)cc(C(C)C)c2O)o1 | 9.66 µM | > 25 µM |
| C/C(N)=C(/C#N)C(=O)COC(=O)c1cc(S(=O)(=O)N2CCCCC2)ccc1C | > 25 µM (inactive) | > 25 µM |
| CC1Cc2ccccc2N1C(=O)Cn1c(=O)cc(O)c2ccccc21 (stereo unspecified) | > 25 µM (inactive) | > 25 µM |

| Compound | IC50 (WT cells) | IC50 [1] |
| --- | --- | --- |
| COc1ccccc1Nc1ncnc2nc[nH]c12 | > 25 µM (inactive) | > 25 µM |
| COc1ccc(Br)cc1CN(C)CC(=O)Nc1ccccc1Cl | 19.8 µM | > 25 µM |
| Cc1ccc(NNC(=O)C(O)(c2cccc(C(F)(F)F)c2)c2cccc(C(F)(F)F)c2)cc1 | 22.3 µM | > 25 µM |
| CCCC12CN3CCN(CC(C3)/C1=N\NC(=O)c1ccc(C(C)(C)C)cc1)C2 | 6.28 µM | 20.2 µM |
| N/C(Cc1ccccc1)=N\OC(=O)c1cccc2ccccc12 | 14.8 µM (inactive) | 14.6 µM |
| C=CCOc1c(Br)cc(/C=N/Nc2ccc(C(=O)O)cc2)cc1OCC | 22.1 µM | > 25 µM |
| COc1ccccc1Cn1c(/C=C/c2ccccc2)nc2ccccc21 | 9.02 µM (inactive) | 8.43 µM |
| O=C(O)C1CCCCC1C(=O)Nc1ccc(F)cc1F (stereo unspecified) | > 25 µM (inactive) | > 25 µM |
| CC(C)Cc1ccc(C(C)C(=O)OCC(=O)c2c[nH]c3ccccc23)cc1 (stereo unspecified) | 17.5 µM | > 25 µM |
| C(=N\Nc1nc(N2CCCCCC2)nc(N2CCCCCC2)n1)/c1ccccc1 | 9.35 µM | > 25 µM |
| Cc1cc(C)n(CC(O)Cn2c3ccc(Br)cc3c3cc(Br)ccc32)c(=O)n1 (stereo unspecified) | 11 µM | > 25 µM |
| CCCCNC(=O)C1CCN(S(=O)(=O)c2cnc[nH]2)CC1 | > 25 µM (inactive) | > 25 µM |
| Clc1ccc2c(c1)C(c1ccccc1Cl)=NCc1nnc(N3CCN(CCSc4ccccc4)CC3)n1-2 | 13.9 µM | > 25 µM |
| CCCCOP(=O)(OCCCC)C(Nc1ccccc1)c1ccc2c(c1)OCO2 (stereo unspecified) | 20.3 µM | > 25 µM |
| CC(C)N1C(=S)SC(C)(C)C1n1oc(=O)n(-c2ccc(Cl)c(Cl)c2)c1=O (stereo unspecified) | > 25 µM (inactive) | > 25 µM |
| Cc1ccc(NC(=S)N(CCCN2CCCC2)Cc2cccn2Cc2ccc(Cl)cc2)cc1 | 14.4 µM | > 25 µM |
| COc1ccc(NC(=O)c2oc3ccccc3c2NC(=O)COc2ccccc2OC)c(OC)c1 | > 25 µM (inactive) | > 25 µM |
| CCOC(=O)c1c(NC(=O)OC)sc(C(=O)N(C)C)c1C | > 25 µM (inactive) | > 25 µM |
| CC(C)(C)n1nnnc1C(c1cccnc1)N(Cc1ccccc1)Cc1cccs1 (stereo unspecified) | 9.97 µM | > 25 µM |
| COc1ccc(-c2noc(CSc3nnc(Cc4ccccc4)n3-c3ccc(Cl)cc3)n2)cc1 | 16.1 µM | > 25 µM |
